Assays:
Ubc13-Uev1A complex = target: T1, Ubc13-Uev1A complex (Homo sapiens, UniProt P61088); test: GST pull-down, in vitro interaction between Ubc13 and Uev1A; type: binding; conditions: GST-Ubc13, OCI-Ly10 cell extract
T1 construct: made in house; host or cells: E. coli BL21 (GST-Ubc13); OCI-Ly10 cell lysate (Uev1A)
Procedure: Purified GST or GST-Ubc13 fusion proteins were incubated with the cell extract prepared from OCI-Ly10 cells with or without the presence of NSC697923 as indicated. The amounts of Uev1A protein associated with GST or GST-Ubc13 were analyzed by western blotting. The first lane was loaded with 8% of the input cell lysate. […] The assay was carried out as described in FIG. 4A, except that the loading buffer for SDS-PAGE gel contains no reducing agent, unless otherwise specified, and the reaction was analyzed by western blotting with a Ubc13-specific antibody. […] The assay was carried out as in FIG. 5B, except that UbcHSc, instead of Ubc13 and Uev1A, was used in the ubiquitination reaction and that a UbcHSc antibody was used for western blot analysis. […]
GST-Ubc13 bound on glutathione-agarose beads was incubated with cell lysates prepared from OCI-Ly10 cells, with or without the presence of NSC697923, at 4° C. for 1 hour. […] The amounts of GST-Ubc13 and Uev1A proteins bound to the beads were then analyzed by western blotting.

UbcH5c = target: T2, UbcH5c (Homo sapiens, UniProt P61077); test: In vitro UbcH5c~Ub thioester conjugate formation; type: biochemical
T2 construct: purchased Boston Biochem Inc E2-627
T2 sequence (P61077 whole entry): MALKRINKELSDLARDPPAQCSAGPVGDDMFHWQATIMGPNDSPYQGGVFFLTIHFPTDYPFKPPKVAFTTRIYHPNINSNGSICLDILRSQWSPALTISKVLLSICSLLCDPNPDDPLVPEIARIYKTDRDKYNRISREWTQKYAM
Procedure: Purified GST or GST-Ubc13 fusion proteins were incubated with the cell extract prepared from OCI-Ly10 cells with or without the presence of NSC697923 as indicated. The amounts of Uev1A protein associated with GST or GST-Ubc13 were analyzed by western blotting. The first lane was loaded with 8% of the input cell lysate. […] The assay was carried out as described in FIG. 4A, except that the loading buffer for SDS-PAGE gel contains no reducing agent, unless otherwise specified, and the reaction was analyzed by western blotting with a Ubc13-specific antibody. […] The assay was carried out as in FIG. 5B, except that UbcHSc, instead of Ubc13 and Uev1A, was used in the ubiquitination reaction and that a UbcHSc antibody was used for western blot analysis.
For detecting the E2-ubiquitin (Ubc13˜Ub or UbcH5c˜Ub) thioester conjugates, the reactions were carried out as described above without GST-TRAF6. The reactions were terminated with the SDS-sample buffer without a reducing agent unless specified. The products were analyzed by western blotting with an anti-Ubc13 or anti-UbcHSc antibody as indicated.

[1] = system: constitutive NF-κB signaling in OCI-Ly10 cells; test: Constitutive NF-κB signaling in ABC DLBCL cells, western blot; type: cell-based; conditions: 3.5 hours
Procedure: OCI-Ly10 cells were treated with the indicated concentrations of NSC697923 for 3 hours. The levels of Ubc13˜Ub conjugate were analyzed by western blotting using a Ubc13-specific antibody as described in FIG. 4B. […] OCI-Ly10 cells were treated with DMSO (0.1%) or the indicated concentrations of NSC697923 for 3.5 hours. The levels of the indicated proteins were analyzed by western blotting with the respective antibodies.

OCI-Ly10 cells = test: Cell cycle distribution, PI and BrdU double staining; type: cell-based; conditions: short time (5 hour) treatment
Procedure: (§1) The indicated ABC DLBCL cells were seeded at 3×10^5 cells/ml in 6-well plates and cultured in the presence of DMSO (0.2%, control) or various concentrations of NSC697923 for 24 hours. The live and dead cells were counted using the trypan blue exclusion assay. Shown are the means from three separate experiments. The average number of live cells in the control was set at 100. […] The levels of the indicated proteins were analyzed by western blotting. For caspase 3 detection, a mixture of an antibody for the uncleaved form and an antibody specific for the cleaved form was used. In FIG. 7C, OCI-Ly10 cells were treated as in FIG. 7A. The apoptotic cells (Annexin V positive cells) were measured by flow cytometry as described in Example 1 infra. A representative result from three independent experiments is depicted. […] BrdU was then added into the culture medium for 30 minutes before the cell-cycle distribution of the treated cells was analyzed as described in Example 1 infra. Shown are the averages from two independent experiments. […] BrdU was then added into the culture medium for 30 minutes before the cell-cycle distribution of the treated cells was analyzed as described in Example 1 infra. Shown are the averages from two independent experiments. […]

OCI-Ly7 cells = test: as above; type: cell-based; conditions: short time (5 hour) treatment
Procedure: as §1

T1 sequence (P61088 whole entry): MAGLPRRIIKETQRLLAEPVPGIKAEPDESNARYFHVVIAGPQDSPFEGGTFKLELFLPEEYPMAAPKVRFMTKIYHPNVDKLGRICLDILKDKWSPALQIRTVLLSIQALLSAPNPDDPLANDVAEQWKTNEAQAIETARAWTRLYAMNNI
T1 sequence (Q13404 whole entry partner): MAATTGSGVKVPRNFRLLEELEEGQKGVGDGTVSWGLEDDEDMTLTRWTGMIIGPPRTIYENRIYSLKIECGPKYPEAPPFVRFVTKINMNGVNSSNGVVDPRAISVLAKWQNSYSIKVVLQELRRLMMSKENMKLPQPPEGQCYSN

complex formation between Ubc13 and Uev1A (Ubc13-Uev1A complex): no inhibitory effect
formation of UbcH5c~Ub conjugate (UbcH5c): is not inhibited
SMILES: Cc1ccc(S(=O)(=O)c2ccc([N+](=O)[O-])o2)cc1 [NSC697923, 2-nitro-5-tosylfuran]
expression of Mc1-1 [1]: is inhibited
expression of p100 [1]: is inhibited
phosphorylation of IKK [1]: inhibited phosphorylation
phosphorylation of IκBα [1]: inhibited phosphorylation
cells in S phase (OCI-Ly10 cells): marked decrease of cells in S phase
cells in S phase (OCI-Ly7 cells): marked decrease of cells in S phase
